Data on 16 compounds can be found in patent US10196386B2, “Compounds having muscarinic receptor antagonist and beta2 adrenergic receptor agonist activity” (priority 2016, dated 2019).

Experiment [1] has as its target T1, Human M3 receptor (Homo sapiens, UniProt P20309).
T1 construct: purchased Perkin Elmer
As to the kind of experiment: biochemical. It is filed as binding. Conditions: read-out: M3 Range.

Experiment [2] concerns the target T2, Human β2 adrenoceptor (Homo sapiens, UniProt P07550).
T2 construct: purchased Perkin Elmer
As to the kind of experiment: β2 adrenoceptor radioligand binding assay. On the procedure: β2 Adrenoceptor Radioligand Binding Assay
Human β2 adrenoceptor membranes (7.5 ug/well) from Perkin Elmer were incubated with 0.3 nM 125-I Cyanopindolol with or without test compounds, or a saturating concentration of s-propranolol (2 μM) for the determination of non-specific binding. The assay was carried out in 96-well polypropylene plates in a volume of 200 ul. The assay buffer used was 25 mM HEPES, 0.5% BSA (w/v), 1 mM EDTA, 0.02% ascorbic acid (v/v), (pH 7.4). The final assay concentration of DMSO was 0.5% (v/v). The plates were sealed and incubated for 1 h at room temperature on an orbital shaker (slow speed). Membranes were harvested onto 96-well unifilter GF/C filter plates pre-treated with 0.5% polyethyleneimine (v/v), using a filter manifold, washed six times with 200 ul of wash buffer containing 10 mM HEPES and 500 mM NaCl. The plates were dried before addition of 50 μl of microscint-0, sealed then read in a Trilux Microbeta scintillation counter. IC50 values are determined from competition curves using a non-linear curve fitting program. Ki values were calculated from IC50 values by the Cheng and Prusoff equation.

T2 sequence (P07550 whole entry): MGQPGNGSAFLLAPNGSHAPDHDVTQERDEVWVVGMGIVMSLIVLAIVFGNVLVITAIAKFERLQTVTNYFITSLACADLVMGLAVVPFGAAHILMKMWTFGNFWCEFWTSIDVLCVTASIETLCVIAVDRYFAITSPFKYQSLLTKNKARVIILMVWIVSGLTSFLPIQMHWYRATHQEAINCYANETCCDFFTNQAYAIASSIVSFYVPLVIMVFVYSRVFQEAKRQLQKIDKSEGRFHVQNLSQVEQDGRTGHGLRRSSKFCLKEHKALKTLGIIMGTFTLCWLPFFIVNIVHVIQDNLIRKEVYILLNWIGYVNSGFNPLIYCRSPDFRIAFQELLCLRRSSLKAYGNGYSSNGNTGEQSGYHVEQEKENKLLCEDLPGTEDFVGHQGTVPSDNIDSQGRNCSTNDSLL
T1 sequence (P20309 whole entry): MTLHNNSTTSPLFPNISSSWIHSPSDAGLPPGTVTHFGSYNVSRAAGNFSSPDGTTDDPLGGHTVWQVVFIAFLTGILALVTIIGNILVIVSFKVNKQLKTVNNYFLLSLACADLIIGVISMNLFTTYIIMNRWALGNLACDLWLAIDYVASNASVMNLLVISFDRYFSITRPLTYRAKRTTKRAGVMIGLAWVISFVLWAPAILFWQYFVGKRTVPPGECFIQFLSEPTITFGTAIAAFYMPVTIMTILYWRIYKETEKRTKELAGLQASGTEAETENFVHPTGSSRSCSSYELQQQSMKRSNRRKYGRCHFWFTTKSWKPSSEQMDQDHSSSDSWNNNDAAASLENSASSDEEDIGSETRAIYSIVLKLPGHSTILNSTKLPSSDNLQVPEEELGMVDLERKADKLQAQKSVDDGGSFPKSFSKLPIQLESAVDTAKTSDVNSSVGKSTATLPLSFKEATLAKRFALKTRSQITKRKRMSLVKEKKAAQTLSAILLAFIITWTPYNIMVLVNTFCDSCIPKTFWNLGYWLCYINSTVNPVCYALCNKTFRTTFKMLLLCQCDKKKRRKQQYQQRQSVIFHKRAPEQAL

On to `C[C@@H](OC(=O)[C@](O)(c1ccccc1)c1cccc(-c2ccc(CNC(=O)c3ccc(CNC[C@H](O)c4ccc(O)c5[nH]c(=O)ccc45)cc3)s2)c1)C1CCN(Cc2ccccc2)CC1` [Compound 2G, (R)-1-(1-Benzylpiperidin-4-yl)ethyl (S)-2-hydroxy-2-(3-(5-((4-((((R)-2-hydroxy-2-(8-hydroxy-2-oxo-1,2-dihydroquinolin-5-yl)ethyl)amino)-methyl)benzamido)methyl)thiophen-2-yl)phenyl)-2-phenylacetate], for which the IC50 was 0.3 to 3 nM in experiment [1] and under 0.3 nM in experiment [2].
Take `O=C(NCc1ccc(-c2cccc([C@](O)(C(=O)OC3CCC4(CC3)CCN(Cc3ccccc3)CC4)c3ccccc3)c2)s1)c1ccc(CNC[C@H](O)c2ccc(O)c3[nH]c(=O)ccc23)cc1` [Compound 2H, 3-Benzyl-3-azaspiro[5.5]undecan-9-yl (S)-2-hydroxy-2-(3-(5-((4-((((R)-2-hydroxy-2-(8-hydroxy-2-oxo-1,2-dihydroquinolin-5-yl)ethyl)amino)-methyl)benzamido)methyl)thiophen-2-yl)phenyl)-2-phenylacetate]: the values for the IC50 in experiment [1] and in experiment [2] were over 3 nM and under 0.3 nM, respectively.
For the compound `O=C(c1ccc(CCNC[C@H](O)c2ccc(O)c3[nH]c(=O)ccc23)cc1)N1CC=C(c2cccc([C@](O)(C(=O)OCC3CCN(Cc4ccccc4)CC3)c3ccccc3)c2)CC1` [Compound 3, (1-Benzylpiperidin-4-yl)methyl (S)-2-hydroxy-2-(3-(1-(4-(2-(((R)-2-hydroxy-2-(8-hydroxy-2-oxo-1,2-dihydroquinolin-5-yl)ethyl)amino)ethyl)benzoyl)-1,2,3,6-tetrahydropyridin-4-yl)phenyl)-2-phenylacetate], the IC50 in experiment [1] and in experiment [2] was under 0.3 nM in each case.
For the compound `O=C(NCc1ccc(-c2cccc([C@](O)(C(=O)OCC3CCN(Cc4ccccc4)CC3)c3ccccc3)c2)o1)c1ccc(CNC[C@H](O)c2ccc(O)c3[nH]c(=O)ccc23)cc1` [Compound 3A, (1-Benzylpiperidin-4-yl)methyl (S)-2-hydroxy-2-(3-(5-((4-((((R)-2-hydroxy-2-(8-hydroxy-2-oxo-1,2-dihydroquinolin-5-yl)ethyl)amino)methyl)-benzamido)methyl)furan-2-yl)phenyl)-2-phenylacetate], the IC50 in experiment [1] and in experiment [2] was 0.3 to 3 nM each time.
As for `O=C(c1ccc(CNC[C@H](O)c2ccc(O)c3[nH]c(=O)ccc23)cc1)N1CC=C(c2cccc([C@](O)(C(=O)OCC3CCN(Cc4ccccc4)CC3)c3ccccc3)c2)CC1` [Compound 3B, (1-Benzylpiperidin-4-yl)methyl (S)-2-hydroxy-2-(3-(1-(4-((((R)-2-hydroxy-2-(8-hydroxy-2-oxo-1,2-dihydroquinolin-5-yl)ethyl)amino)methyl)benzoyl)-1,2,3,6-tetrahydropyridin-4-yl)phenyl)-2-phenylacetate], the IC50 in experiment [1] is 0.3 to 3 nM; in experiment [2], under 0.3 nM.
For `COc1cc(C(=O)N2CC=C(c3cccc([C@](O)(C(=O)OCC4CCN(Cc5ccccc5)CC4)c4ccccc4)c3)CC2)ccc1CNC[C@H](O)c1ccc(O)c2[nH]c(=O)ccc12` [Compound 3C, (1-Benzylpiperidin-4-yl)methyl (S)-2-hydroxy-2-(3-(1-(4-((((R)-2-hydroxy-2-(8-hydroxy-2-oxo-1,2-dihydroquinolin-5-yl)ethyl)amino)methyl)-3-methoxybenzoyl)-1,2,3,6-tetrahydropyridin-4-yl)phenyl)-2-phenylacetate], the IC50 in experiment [1] and in experiment [2] was under 0.3 nM throughout.
Regarding `COc1c(CNC[C@H](O)c2ccc(O)c3[nH]c(=O)ccc23)ccc(C(=O)N2CC=C(c3cccc([C@](O)(C(=O)OCC4CCN(Cc5ccccc5)CC4)c4ccccc4)c3)CC2)c1F` [Compound 3D, (1-Benzylpiperidin-4-yl)methyl (S)-2-(3-(1-(2-fluoro-4-((((R)-2-hydroxy-2-(8-hydroxy-2-oxo-1,2-dihydroquinolin-5-yl)ethyl)amino)methyl)-3-methoxybenzoyl)-1,2,3,6-tetrahydropyridin-4-yl)phenyl)-2-hydroxy-2-phenylacetate], the IC50 in experiment [1] and in experiment [2] was 0.3 to 3 nM in each case.
For `COc1cc(CNC[C@H](O)c2ccc(O)c3[nH]c(=O)ccc23)ccc1C(=O)N1CC=C(c2cccc([C@](O)(C(=O)OCC3CCN(Cc4ccccc4)CC3)c3ccccc3)c2)CC1` [Compound 3E, (1-Benzylpiperidin-4-yl)methyl (S)-2-hydroxy-2-(3-(1-(4-((((R)-2-hydroxy-2-(8-hydroxy-2-oxo-1,2-dihydroquinolin-5-yl)ethyl)amino)methyl)-2-methoxybenzoyl)-1,2,3,6-tetrahydropyridin-4-yl)phenyl)-2-phenylacetate], the IC50 in experiment [1] and in experiment [2] was under 0.3 nM in each case.
On to `O=C(c1ccc(CCNC[C@H](O)c2ccc(O)c3[nH]c(=O)ccc23)cc1)N1CC=C(c2cccc([C@](O)(C(=O)OCC3CCN(Cc4ccccc4)CC3)c3ccccc3)c2)C1` [Compound 3F, (1-Benzylpiperidin-4-yl)methyl (S)-2-hydroxy-2-(3-(1-(4-(2-(((R)-2-hydroxy-2-(8-hydroxy-2-oxo-1,2-dihydroquinolin-5-yl)ethyl)amino)ethyl)benzoyl)-2,5-dihydro-1H-pyrrol-3-yl)phenyl)-2-phenylacetate], for which the values for the IC50 in experiment [1] and in experiment [2] were 0.3 to 3 nM and under 0.3 nM, respectively.
For `O=C(c1ccc(CNC[C@H](O)c2ccc(O)c3[nH]c(=O)ccc23)cc1)N1CC=C(c2cccc([C@](O)(C(=O)OCC3CCN(Cc4ccccc4)CC3)c3ccccc3)c2)C1` [Compound 3G, (1-Benzylpiperidin-4-yl)methyl (S)-2-hydroxy-2-(3-(1-(4-((((R)-2-hydroxy-2-(8-hydroxy-2-oxo-1,2-dihydroquinolin-5-yl)ethyl)amino)methyl)benzoyl)-2,5-dihydro-1H-pyrrol-3-yl)phenyl)-2-phenylacetate], in that order: 0.3 to 3 nM and under 0.3 nM.
Consider `COc1cc(C(=O)N2CCC=C(c3cccc([C@](O)(C(=O)OCC4CCN(Cc5ccccc5)CC4)c4ccccc4)c3)C2)ccc1CNC[C@H](O)c1ccc(O)c2[nH]c(=O)ccc12` [Compound 3H, (1-Benzylpiperidin-4-yl)methyl (S)-2-hydroxy-2-(3-(1-(4-((((R)-2-hydroxy-2-(8-hydroxy-2-oxo-1,2-dihydroquinolin-5-yl)ethyl)amino)methyl)-3-methoxybenzoyl)-1,2,5,6-tetrahydropyridin-3-yl)phenyl)-2-phenylacetate], for which the IC50 was 0.3 to 3 nM in experiment [1] and under 0.3 nM in experiment [2].
Taken in the same sequence, the figures for `O=C(c1ccc(CNC[C@H](O)c2ccc(O)c3[nH]c(=O)ccc23)cc1)N1CCC=C(c2cccc([C@](O)(C(=O)OCC3CCN(Cc4ccccc4)CC3)c3ccccc3)c2)C1` [Compound 3I, (1-Benzylpiperidin-4-yl)methyl (S)-2-hydroxy-2-(3-(1-(4-((((R)-2-hydroxy-2-(8-hydroxy-2-oxo-1,2-dihydroquinolin-5-yl)ethyl)amino)methyl)benzoyl)-1,2,5,6-tetrahydropyridin-3-yl)phenyl)-2-phenylacetate] were 0.3 to 3 nM and 0.3 to 3 nM.
Regarding `COc1cc(C(=O)N2CC=C(c3cccc([C@](O)(C(=O)OCC4CCN(Cc5ccccc5)CC4)c4ccccc4)c3)C2)ccc1CNC[C@H](O)c1ccc(O)c2[nH]c(=O)ccc12` [Compound 3J, (1-Benzylpiperidin-4-yl)methyl (S)-2-hydroxy-2-(3-(1-(4-((((R)-2-hydroxy-2-(8-hydroxy-2-oxo-1,2-dihydroquinolin-5-yl)ethyl)amino)methyl)-3-methoxybenzoyl)-2,5-dihydro-1H-pyrrol-3-yl)phenyl)-2-phenylacetate], the IC50 in experiment [1] and in experiment [2] was under 0.3 nM throughout.
On to `O=C(NCc1ncc(-c2cccc([C@](O)(C(=O)OCC3CCN(Cc4ccccc4)CC3)c3ccccc3)c2)cn1)c1ccc(CNC[C@H](O)c2ccc(O)c3[nH]c(=O)ccc23)cc1` [Compound 4, (1-Benzylpiperidin-4-yl)methyl (S)-2-hydroxy-2-(3-(2-((4-((((R)-2-hydroxy-2-(8-hydroxy-2-oxo-1,2-dihydroquinolin-5-yl)ethyl)amino)methyl)benzamido)-methyl)pyrimidin-5-yl)phenyl)-2-phenylacetate], for which the IC50 in experiment [1] and in experiment [2] was 0.3 to 3 nM throughout.
`COc1cc(C(=O)NCc2ccnc(-c3cccc([C@](O)(C(=O)OCC4CCN(Cc5ccccc5)CC4)c4ccccc4)c3)n2)ccc1CNC[C@H](O)c1ccc(O)c2[nH]c(=O)ccc12` [Compound 4A, (1-Benzylpiperidin-4-yl)methyl (S)-2-hydroxy-2-(3-(4-((4-((((R)-2-hydroxy-2-(8-hydroxy-2-oxo-1,2-dihydroquinolin-5-yl)ethyl)amino)methyl)-3-methoxybenzamido)methyl)pyrimidin-2-yl)phenyl)-2-phenylacetate]: the results for the IC50 in experiment [1] and in experiment [2] were 0.3 to 3 nM and under 0.3 nM, respectively.
As to `O=C(NCc1cnc(-c2cccc([C@](O)(C(=O)OCC3CCN(Cc4ccccc4)CC3)c3ccccc3)c2)cn1)c1ccc(CNC[C@H](O)c2ccc(O)c3[nH]c(=O)ccc23)cc1` [Compound 4B, (1-Benzylpiperidin-4-yl)methyl (S)-2-hydroxy-2-(3-(5-((4-((((R)-2-hydroxy-2-(8-hydroxy-2-oxo-1,2-dihydroquinolin-5-yl)ethyl)amino)methyl)-benzamido)methyl)pyrazin-2-yl)phenyl)-2-phenylacetate], the IC50 in experiment [1] was under 0.3 nM; in experiment [2], 0.3 to 3 nM.
